Reference: ChEMBL document CHEMBL1201862, “PubChem BioAssay data set” (2004)
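Test compounds were applied to cells in 96-well plates for 48 hours at 5 doses. At the GI50, growth is halved.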 Activity calls are given as the source filed them. No stated cut-off is given here; in the data, active = GI50 up to about 1.1 µM and inactive = higher.

Columns and labels:
Assay in all cases: DTP human tumour cell line panel, 48 h
[1] = tested on: SK-MEL-28
[2] = tested on: U-251
[3] = tested on: Malme-3M
[4] = tested on: SW-620
[5] = tested on: HT-29
[6] = tested on: SN12C
[7] = tested on: NCI-H23
[8] = tested on: HL-60
[9] = tested on: SK-OV-3
[10] = tested on: HOP-62
[11] = tested on: Hs-578T
[12] = tested on: COLO 205
[13] = tested on: SF-539
[14] = tested on: UACC-257
[15] = tested on: NCI-H460
[16] = tested on: A498
[17] = tested on: CCRF-CEM
[18] = tested on: SF-295
[19] = tested on: K562
[20] = tested on: HCT-15

## CN(C)CCNC(=O)c1ccc(NCCCN(C)CCCNc2ccc(C(=O)NCCN(C)C)c3nc4ccc([N+](=O)[O-])cc4c(O)c23)c2c(O)c3cc([N+](=O)[O-])ccc3nc12
[1]
  GI50: 0.157 µM (active)
[2]
  GI50: < 0.01 µM (active)
[3]
  GI50: 0.126 µM (active)
[4]
  GI50: < 0.01 µM (active)
[5]
  GI50: < 0.0182 µM (active)
[6]
  GI50: < 0.01 µM (active)
[7]
  GI50: 0.126 µM (active)
[8]
  GI50: 0.0277 µM (active)
[9]
  GI50: 0.232 µM (active)
[10]
  GI50: 0.154 µM (active)
[11]
  GI50: 0.0798 µM (active)
[12]
  GI50: < 0.0133 µM (active)
[13]
  GI50: 0.0186 µM (active)
[14]
  GI50: 0.385 µM (active)
[15]
  GI50: < 0.01 µM (active)
[16]
  GI50: 0.116 µM (active)
[17]
  GI50: < 0.01 µM (active)
[18]
  GI50: 0.0495 µM (active)
[19]
  GI50: 0.0135 µM (active)
[20]
  GI50: 0.368 µM

## O=C(N/N=C\c1cccs1)c1ccncc1
[1]
  GI50: > 100 µM (inactive)
[2]
  GI50: > 100 µM (inactive)
[3]
  GI50: > 100 µM (inactive)
[4]
  GI50: > 100 µM (inactive)
[5]
  GI50: > 100 µM (inactive)
[6]
  GI50: > 100 µM (inactive)
[7]
  GI50: > 100 µM (inactive)
[8]
  GI50: > 100 µM (inactive)
[9]
  GI50: > 100 µM (inactive)
[10]
  GI50: > 100 µM (inactive)
[11]
  GI50: > 100 µM (inactive)
[12]
  GI50: > 100 µM (inactive)
[13]
  GI50: > 100 µM (inactive)
[14]
  GI50: > 100 µM (inactive)
[15]
  GI50: > 100 µM (inactive)
[16]
  GI50: > 100 µM (inactive)
[17]
  GI50: > 100 µM (inactive)
[18]
  GI50: > 100 µM (inactive)
[19]
  GI50: > 100 µM (inactive)
[20]
  GI50: > 100 µM

## COC(=O)c1nc(-c2nc(CCNC(=O)OC(C)(C)C)sc2Cl)sc1Cl
[1]
  GI50: 70.1 µM (inactive)
[2]
  GI50: > 100 µM (inactive)
[3]
  GI50: 66.8 µM (inactive)
[4]
  GI50: > 100 µM (inactive)
[5]
  GI50: > 100 µM (inactive)
[6]
  GI50: > 10 µM (inactive)
[7]
  GI50: 44.7 µM (inactive)
[8]
  GI50: 71.9 µM (inactive)
[9]
  GI50: > 100 µM (inactive)
[10]
  GI50: 32.6 µM (inactive)
[11]
  GI50: > 100 µM (inactive)
[12]
  GI50: 98.4 µM (inactive)
[13]
  GI50: > 100 µM (inactive)
[14]
  GI50: > 100 µM (inactive)
[15]
  GI50: > 100 µM (inactive)
[16]
  GI50: 94.6 µM (inactive)
[17]
  GI50: 32.2 µM (inactive)
[18]
  GI50: > 100 µM (inactive)
[19]
  GI50: 36.7 µM (inactive)
[20]
  GI50: 36.3 µM

## Cn1c(-c2cccs2)cc(-c2cccs2)c1-c1cccs1
[1]
  GI50: > 100 µM (inactive)
[2]
  GI50: > 79.3 µM (inactive)
[3]
  GI50: > 100 µM (inactive)
[4]
  GI50: > 100 µM (inactive)
[5]
  GI50: > 100 µM (inactive)
[6]
  GI50: > 100 µM (inactive)
[7]
  GI50: 13.6 µM (inactive)
[8]
  GI50: 33 µM (inactive)
[9]
  GI50: > 100 µM (inactive)
[10]
  GI50: > 100 µM (inactive)
[11]
  GI50: 44.5 µM (inactive)
[12]
  GI50: 8.95 µM (inactive)
[13]
  GI50: > 100 µM (inactive)
[14]
  GI50: 16.5 µM (inactive)
[15]
  GI50: 78.7 µM (inactive)
[16]
  GI50: > 100 µM (inactive)
[17]
  GI50: 67 µM (inactive)
[18]
  GI50: > 81.3 µM (inactive)
[19]
  GI50: 51.8 µM (inactive)
[20]
  GI50: 21.8 µM

## CCCCCCCCCCCCCCCCNc1ccn(C2CC(O)C(COC(c3ccccc3)(c3ccccc3)c3ccc(OC)cc3)O2)c(=O)n1 (stereo not given)
[1]
  GI50: > 100 µM (inactive)
[2]
  GI50: 64.1 µM (inactive)
[3]
  GI50: > 100 µM (inactive)
[4]
  GI50: > 100 µM (inactive)
[5]
  GI50: > 100 µM (inactive)
[6]
  GI50: > 100 µM (inactive)
[7]
  GI50: > 100 µM (inactive)
[8]
  GI50: > 100 µM (inactive)
[9]
  GI50: > 100 µM (inactive)
[10]
  GI50: > 100 µM (inactive)
[11]
  GI50: > 100 µM (inactive)
[12]
  GI50: > 100 µM (inactive)
[13]
  GI50: > 100 µM (inactive)
[14]
  GI50: > 10 µM (inactive)
[15]
  GI50: > 100 µM (inactive)
[16]
  GI50: > 100 µM (inactive)
[17]
  GI50: 67.8 µM (inactive)
[18]
  GI50: > 100 µM (inactive)
[19]
  GI50: > 100 µM (inactive)
[20]
  GI50: > 100 µM

## C#CC1NC(=O)C1N(CC)CC (stereo not given)
[1]
  GI50: > 100 µM (inactive)
[2]
  GI50: > 100 µM (inactive)
[3]
  GI50: > 100 µM (inactive)
[4]
  GI50: > 100 µM (inactive)
[5]
  GI50: > 100 µM (inactive)
[6]
  GI50: > 100 µM (inactive)
[7]
  GI50: > 100 µM (inactive)
[8]
  GI50: > 100 µM (inactive)
[9]
  GI50: > 100 µM (inactive)
[10]
  GI50: > 100 µM (inactive)
[11]
  GI50: > 100 µM (inactive)
[12]
  GI50: > 100 µM (inactive)
[13]
  GI50: > 100 µM (inactive)
[14]
  GI50: > 100 µM (inactive)
[15]
  GI50: > 100 µM (inactive)
[16]
  GI50: > 100 µM (inactive)
[17]
  GI50: > 100 µM (inactive)
[18]
  GI50: > 100 µM (inactive)
[19]
  GI50: > 100 µM (inactive)
[20]
  GI50: > 100 µM
